From patent publication US20250123273A1, “SYSTEM TO CALCULATE HUMAN ORAL BIOAVAILABILITY” (CN Bio Innovations Limited, priority 2023, published 2025)

Key:
[1] = test system: primary human intestinal cells; assay: Intestinal barrier strength by transepithelial electrical resistance (TEER), primary intestinal cells in different media; assay type: cell-based; settings: after 8 days in culture, FIG. 3
From the text: It was clear that that serum free intestinal differentiation media compromised the metabolic functionality of primary liver cells, thus would not be appropriate for the co-culture of these two cell types. Therefore, the inventors investigated which components of serum free intestinal differentiation media were important for intestinal barrier function.

primary liver cells = assay: CYP3A4 metabolic rate of primary liver cells co-cultured with primary intestinal cells in dual organ plate; assay type: cell-based, human; settings: co-culture with primary intestinal cells; threshold 1 pmol/min/million cell; by day 6 in culture; FIG. 4

Molecule	TEER (intestinal barrier strength) [1]	CYP3A4 metabolic rate (primary liver cells)
C[C@]12CCC(=O)C=C1CC[C@@H]1[C@@H]2[C@@H](O)C[C@@]2(C)[C@H]1CC[C@]2(O)C(=O)CO [hydrocortisone, reference compound]	help maintain primary intestinal cell barrier function	
epidermal growth factor [EGF]	critical for primary intestinal cell barrier function	compromises the metabolic functionality
